{"source": "paper PMC4230446", "about": "(Biochemistry, 2009)", "biological_target": "T1, pyruvate formate-lyase activating enzyme (PFL-AE) (Escherichia coli, UniProt P0A9N4)", "T1 sequence (P0A9N4 2-246)": "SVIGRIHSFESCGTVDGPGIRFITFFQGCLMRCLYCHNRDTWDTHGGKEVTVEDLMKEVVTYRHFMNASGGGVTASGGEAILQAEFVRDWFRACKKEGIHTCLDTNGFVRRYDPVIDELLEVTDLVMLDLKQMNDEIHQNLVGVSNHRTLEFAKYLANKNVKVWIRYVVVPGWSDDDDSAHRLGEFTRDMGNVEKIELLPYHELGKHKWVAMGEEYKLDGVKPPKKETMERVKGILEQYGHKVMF", "assay": "[…] Mössbauer spectroscopy", "format": "binding", "details": "0.64 mM enzyme, [4Fe-4S]2+ state; 4.2 K, 50 mT; unique Fe site of cluster", "data": [{"smiles": "Nc1ncnc2c1ncn2[C@@H]1O[C@H](COP(=O)(O)O)[C@@H](O)[C@H]1O", "note": "[AMP]", "values": [{"measurement": "fraction of LOC cluster at 6.4 mM", "value": "69 % of total Fe"}]}, {"smiles": "Nc1ncnc2c1ncn2[C@@H]1O[C@H](COP(=O)(O)OP(=O)(O)O)[C@@H](O)[C@H]1O", "note": "[ADP]", "values": [{"measurement": "fraction of LOC cluster at 6.4 mM", "value": "50 % of total Fe"}]}]}
